The text below walks through data of ChEMBL document CHEMBL1201862, “PubChem BioAssay data set” (2004).

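Results reflect a 48-hour exposure of cells in 96-well plates to compound at five concentrations. GI50 = concentration required for 50% inhibition of growth.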 Activity calls are given as the source filed them. Rule as the data show it: active = GI50 up to about 1.1 µM and inactive = higher. Some results are limits rather than exact numbers.

Some test systems named below: HOP-62; HCT-116; SR; OVCAR-3; DLD-1; UACC-257; TK-10; M14; NCI-H23; HOP-18; 786-0; NCI-H460; KM12; HT-29; SN12C; SNB-75; MOLT-4; UO-31; NCI-H226.
Assay in all cases: growth of human tumour cells (NCI), 48 h

As for `C=CCN(C)CN(C)c1nc(N(C)C)nc(N(C)C)n1`, the GI50 was > 100 µM (inactive) in the test on HOP-62; 60.7 µM (inactive) in the test on HCT-116; 49.2 µM (inactive) in the test on SR; 64.6 µM (inactive) in the test on OVCAR-3; 49.4 µM (inactive) in the test on DLD-1; > 100 µM (inactive) with UACC-257. In addition, the GI50 was > 100 µM (inactive) in the test on TK-10; 50.7 µM (inactive) in the test on M14; > 100 µM (inactive) in the test on NCI-H23; > 100 µM (inactive) in the test on HOP-18; 43.9 µM (inactive) with 786-0; 11.8 µM (inactive) in the test on NCI-H460. The GI50 is > 100 µM (inactive) with KM12; > 100 µM (inactive) with HT-29; > 100 µM (inactive) with SN12C; 44.1 µM (inactive) in the test on SNB-75; > 100 µM (inactive) in the test on MOLT-4; > 100 µM (inactive) in the test with UO-31.

Consider `CN1NC(c2ccccc2)=C(C#N)C(=O)CC1c1ccccc1Cl` (stereo not drawn), for which the GI50 in the test on HOP-62 was 25.3 µM (inactive); in the test with HCT-116 it was > 100 µM (inactive); in the test with SR it was > 100 µM (inactive); in the test on DLD-1, 61.4 µM (inactive); in the test on UACC-257 it was > 100 µM (inactive); in the test with TK-10 it was > 100 µM (inactive). Besides, the GI50 was > 100 µM (inactive) in the test on M14; > 100 µM (inactive) in the test on NCI-H23; 67.3 µM (inactive) in the test on HOP-18; > 100 µM (inactive) in the test on 786-0; > 100 µM (inactive) in the test with NCI-H460; > 100 µM (inactive) in the test with KM12. Further, the GI50 in the test with HT-29 was > 100 µM (inactive); in the test on SN12C, > 100 µM (inactive); in the test on SNB-75 it was 86.3 µM (inactive); in the test with NCI-H226, > 100 µM (inactive); in the test with MOLT-4, > 100 µM (inactive).

For `COc1ccc(CN2CCC/C=C/CC(Cl)(Cl)C2=O)cc1`, the GI50 is 50.9 µM (inactive) in the test with HOP-62; 31.3 µM (inactive) with HCT-116; 24.1 µM (inactive) in the test with SR; 34.8 µM (inactive) in the test on OVCAR-3; 31.6 µM (inactive) with DLD-1; 29.7 µM (inactive) with TK-10. Also, the GI50 is 20.1 µM (inactive) in the test with M14; 27.2 µM (inactive) in the test on NCI-H23; 56.6 µM (inactive) in the test on HOP-18; 35.8 µM (inactive) in the test on 786-0; 29.4 µM (inactive) in the test on NCI-H460; 36.6 µM (inactive) in the test on KM12. The GI50 with HT-29 was 35.8 µM (inactive); in the test on SN12C, 37.9 µM (inactive); in the test with SNB-75, 15.1 µM (inactive); in the test on MOLT-4 it was 22.8 µM (inactive); in the test with UO-31, 21.2 µM (inactive).

As to `COC(=O)CCC(=O)N1Cc2cc(C)ccc2N(C(=O)CCC(=O)OC)Cc2cc(C)ccc21`, the GI50 in the test on HOP-62, in the test with HCT-116, in the test with SR, with OVCAR-3, in the test with DLD-1 and with TK-10 was > 100 µM (inactive) in each case. The GI50 in the test on M14, in the test with NCI-H23, in the test on HOP-18, in the test with 786-0, with NCI-H460 and with KM12 was > 100 µM (inactive) in each case. For the same compound, the GI50 in the test with HT-29, with SN12C, in the test on NCI-H226, in the test on MOLT-4 and in the test with UO-31 was > 100 µM (inactive) in each case.

On to `CCOC(=O)Cn1c(=O)[nH]c(=O)c2[nH]cnc21`, for which the GI50 in the test on HOP-62, with HCT-116, with SR, with OVCAR-3, in the test on DLD-1 and in the test with UACC-257 was > 100 µM (inactive) throughout. The GI50 in the test on TK-10, in the test with M14, in the test on NCI-H23, in the test with HOP-18, with 786-0 and with NCI-H460 was > 100 µM (inactive) in each case. Also, the GI50 with KM12, in the test on HT-29, in the test with SN12C, with SNB-75, with MOLT-4 and in the test with UO-31 was > 100 µM (inactive) in each case.

As to `COc1cc2c(c(OC)c1OC)CCNC2C1=C(O)COC1=O` (stereo not drawn), the GI50 with HOP-62, in the test with HCT-116, with SR, with DLD-1, with UACC-257 and in the test with TK-10 was > 100 µM (inactive) each time. Moreover, the GI50 in the test with M14 is > 100 µM (inactive); in the test on HOP-18, 95.5 µM (inactive); in the test with 786-0 it was > 100 µM (inactive); in the test on NCI-H460 it was 92.9 µM (inactive); in the test on KM12, > 100 µM (inactive); with HT-29, > 100 µM (inactive). Moreover, the GI50 in the test with SN12C was > 100 µM (inactive); with SNB-75 it was > 100 µM (inactive); in the test with NCI-H226, 28.9 µM (inactive); in the test on MOLT-4, > 100 µM (inactive); in the test on UO-31 it was > 100 µM (inactive).

Regarding `O=[N+]([O-])c1ccc(-c2noc(-c3ccc(Cl)cc3)c2C2=NCCN2)cc1`, the GI50 in the test with HOP-62, with HCT-116, in the test on SR, in the test on OVCAR-3, in the test with DLD-1 and in the test on UACC-257 was > 100 µM (inactive) each time. Also, the GI50 with M14 is > 100 µM (inactive); in the test on HOP-18, 94.2 µM (inactive); in the test on 786-0, > 100 µM (inactive); in the test with NCI-H460, > 100 µM (inactive); in the test with KM12, > 100 µM (inactive); in the test on HT-29, > 100 µM (inactive). Besides, the GI50 in the test on SN12C, in the test on NCI-H226, in the test on MOLT-4 and with UO-31 was > 100 µM (inactive) throughout.

As for `O=C(Nc1nnc(S)[nH]1)C(=O)C(C(=O)c1ccc2ccccc2c1)C1OC(=O)c2ccccc21` (stereo not drawn), the GI50 in the test on HOP-62 was 14.7 µM (inactive); in the test with HCT-116, 13.7 µM (inactive); with OVCAR-3, 15.5 µM (inactive); in the test on DLD-1, 19.5 µM (inactive); in the test with UACC-257, 19.7 µM (inactive); in the test on TK-10, 21.6 µM (inactive). For the same compound, the GI50 in the test on M14 was 19.1 µM (inactive); with NCI-H23, 17.1 µM (inactive); in the test with HOP-18, 0.305 µM (active); with 786-0, 14.9 µM (inactive); in the test on NCI-H460, > 100 µM (inactive); in the test on KM12, 26.8 µM (inactive). In addition, the GI50 with HT-29 is 35 µM (inactive); with SN12C, 18.2 µM (inactive); in the test on SNB-75, 13.8 µM (inactive); in the test on NCI-H226 it was 4.85 µM (inactive); in the test on MOLT-4, 3.78 µM (inactive); in the test on UO-31, 15.7 µM (inactive).
